The values below are quoted from earlier work in patent US8772507B2, “Imidazole-benzamide anti-cancer agents” (Cytokinetics, Inc., priority 2004, dated 2014).

The structures appear in SMILES notation. Like-named read-outs stand apart in the source and are kept apart here.

For this data set, the system named is A549 cells.

As usually defined, the GI50 is the concentration at which growth is held to half of that of the control. As to `NC(=O)NO` [hydroxyurea], the GI50 is 500 µM.

On to `CC(=O)O[C@H]1C(=O)[C@@]2(C)[C@H]([C@H](OC(=O)c3ccccc3)[C@]3(O)C[C@H](OC(=O)[C@H](O)[C@@H](NC(=O)c4ccccc4)c4ccccc4)C(C)=C1C3(C)C)[C@]1(OC(C)=O)CO[C@@H]1C[C@@H]2O` [paclitaxel], for which the GI50 was 0.004 µM.

In the case of `O=c1[nH]cc(F)c(=O)[nH]1` [5-fluorouracil], the GI50 is 1 µM. Also, the GI50 (no unit printed at this place) was 1 µM.

Consider `COc1cccc2c1C(=O)c1c(O)c3c(c(O)c1C2=O)C[C@@](O)(C(=O)CO)C[C@@H]3O[C@H]1C[C@H](N)[C@H](O)[C@H](C)O1` [doxorubicin], for which the concentration for 50% growth inhibition (GI50) was 0.063 µM.
